The values that follow come from patent publication US10087194B2, “Podophyllotoxin derivatives and their use” (California Pacific Medical Center, priority 2015, dated 2018).

For orientation: TGI means how far tumour growth fell short of that in controls. The low end stands for a weaker effect on the tumour, the high end for a stronger effect on the tumour. Usually IC50 stands for the concentration that inhibits the measured activity by half.

For data set [1], the system named is K562 human chronic myeloid leukemia xenograft. As to the kind of experiment: Subcutaneous K562 human chronic myeloid leukemia xenograft model. For orientation: In xenograft studies the graft and the host belong to different species.
The nature of a further data set: Rat MTD study. In kind it is in vivo, Sprague-Dawley rats. As for the experimental part: In the rat MTD study, Sprague-Dawley rats were dosed with 801 HCl at a concentration of 6 mg/ml via intravenous infusion or slow intravenous injection. The MTD of 801 in normal rats was 120 mg/kg/day. In the 7-day repeating dose study, the rats were administered with […] via BID slow IV injection for 7 days.

Data set [2] has as its system COLO205 human colon cancer xenograft. As to the kind of experiment: Subcutaneous COLO205 human colon cancer xenograft model. The class given is in vivo, Mus Musculus. As for the experimental part: Each mouse was inoculated subcutaneously with 5×10^6 COLO205 tumor cells in 0.1 ml PBS for tumor development. Treatments were started when the tumor volume reached 120 mm^3. […] Body weight and tumor volume were measured twice a week.

A short description of data set [3]: Toxicity study (MTD) in normal mice. The settings on record: single i.p. injection; C3H female normal mice; checked daily for 40 days (MTD40).
The nature of data set [4]: Toxicity studies in Cynomolgus monkeys (MTD). In kind it is in vivo.
Data set [5] concerns HCT116 human colon cancer xenograft. In words: Subcutaneous HCT116 human colon cancer xenograft model. The note with it: for TGI: HCT116, day 29. In kind it is in vivo, Mus Musculus. As for the experimental part:
Each mouse was inoculated subcutaneously with 5×10^6 HCT116 tumor cells in 0.1 ml PBS for tumor development. Treatments were started when the tumor volume reached 100 mm^3. […] Body weight and tumor volume were measured twice a week.

In data set [6] the test system is VM46 Human Colon Cancer Cells Overexpressing Multi-drug Resistant Gene 1. In words: Colony formation assay, VM46. The note with it: read-out: IC50 (VM46). The class given is cell-based. As for the experimental part: (§1) Cancer cells were plated in 60 mm Petri dishes containing 2.7 ml of medium (modified McCoy's 5a medium containing 10% fetal bovine serum and 100 units/ml penicillin and 100 ug/ml streptomycin). The cells were incubated in a CO2 incubator at 37 degree C. for 5 hours for attachment to the bottom of Petri dishes. Drugs were made up fresh in medium at ten times the final concentration, and then 0.3 ml of this stock solution was added to the 2.7 ml of medium in the dish. The cells were then incubated with drugs for 72 hours at 37 degree C. At the end of incubation the drug-containing media were decanted, the dishes were rinsed with 4 ml of Hank's Balance Salt Solution (HBSS), 5 ml of fresh medium was added, and the dishes were returned to the incubator for colony formation. The cell colonies were counted using colony counter after incubation for 7 days (HCT116 cell line), 14 days (VM46 cell line) and 15 days (H23 cell line). Cell survival (%) was calculated from 3 repeated dishes for each drug concentration and the mean values of IC50 (the drug concentration producing 50% inhibition of colony formation) were determined for each tested compound.

In data set [7] the test system is HCT116 Human Colon Cancer Cells. As to the kind of experiment: Colony formation assay, HCT116. The class given is cell-based. As for the experimental part: as §1
The test system of data set [8] is H23 Human Non-small Cell Lung Cancer Cells. In words: Colony formation assay, H23. The note with it: read-out: IC50 (H23). The class given is cell-based. As for the experimental part: as §1
In data set [9] the test system is HCT116 human colon cancer xenografts. As to the kind of experiment: Preliminary in vivo efficacy, HCT116 xenografts in nude mice. Also noted: species or system nude mice (nu/nu genotype). The note with it: single i.p. injection at i.p. MTD doses. As for the experimental part:
In vivo anticancer efficacy study was performed on nude mice (nu/nu genotype) bearing HCT116 human colon cancer xenografts. These human tumors grew exponentially following implantation into the flanks of the mice and reached an average tumor volume of 79.85 cu. mm. Treatment was initiated at that time, with the first day of treatment designated as day 0 for all calculations and plots. The 6 mice were injected i.p. with each of four Neovia drug solutions (5% alcohol, 5% Cremophor EL, and 90% saline, 0.5 ml/20 g, single injection). Drug doses (i.p. MTD doses) were 120 mg/kg for Neovia-1, 300 mg/kg for Neovia-2, 120 mg/kg for Neovia-3, and 180 mg/kg for Neovia-4. Control group of mice was treated with vehicle alone. After treatment, tumor sizes were measured by caliper every other day. The measurement of the tumor diameters (d1, d2) in two orthogonal directions was used to calculate the tumor volume (tumor volume=π/6 {(d1+d2)/2}3) using the approximation that the tumors are spherical. Each tumor growth curve for each mouse was plotted. The time (days) required to grow the tumor to the size of 800 cu. mm after various treatments was calculated as tumor growth delay indexes for evaluating the treatment effects. Survival times after treatment was also observed and recorded.

The next data set can be described thus: in vivo. The settings on record: female, C3H, mouse, ip.
Setting [10] is: Homo sapiens, drugs 72 hours, colonies counted after 14 days.
The mark [11] stands for this setting: Homo sapiens, HCT-116, drugs 72 hours, colonies counted after 7 days, read-out: IC50 (HCT116).
Where [12] appears, read: Homo sapiens, drugs 72 hours, colonies counted after 15 days.

Like-named read-outs stand apart in the source and are kept apart here. Bounds are passed on as bounds.

Consider `CCC1(OC(=O)COc2ccc(C(=O)OC3c4cc5c(cc4C(c4cc(OC)c(OC)c(OC)c4)C4C(=O)OCC34)OCO5)cc2)C(=O)OCc2c1cc1n(c2=O)Cc2cc3cc(OC(=O)N4CCC(N5CCCCC5)CC4)ccc3nc2-1.Cl` (centres unmarked) [Compound 801-HCl], for which the “Mean Tumor Volume” value worked out at 159 ± 16 mm^3 in data set [1] (300 mg/kg ip Days 8, 11, 14, Day 8); 221 ± 27 mm^3 in data set [1] (300 mg/kg ip Days 8, 11, 14, Day 11); 164 ± 16 mm^3 in [1] (300 mg/kg ip Days 8, 11, 14, Day 14); 47 ± 7 mm^3 in data set [1] (300 mg/kg ip Days 8, 11, 14, Day 18); 39 ± 6 mm^3 in [1] (300 mg/kg ip Days 8, 11, 14, Day 21); 74 ± 12 mm^3 in data set [1] (300 mg/kg ip Days 8, 11, 14, Day 25). Moreover, the “Mean Tumor Volume” value in [1] (300 mg/kg ip Days 8, 11, 14, Day 28) was 95 ± 19 mm^3. The “maximum BW loss” value in data set [1] (300 mg/kg ip, next day after the 2nd dosing) is reported as 7.7%. The “TGI (Day 25)” value in data set [1] (K562, 300 mg/kg ip Days 8, 11, 14) is 98%. The “CR ratio (ratio of complete regression)” value in [1] (K562, 300 mg/kg ip Days 8, 11, 14, by Day 21) was 3/8. Besides, the MTD in “Rat MTD study” (normal Sprague-Dawley rats, 6 mg/ml via intravenous infusion or slow intravenous injection) came out at 120 mg/kg/day; in [4] (intravenous infusion twice daily with a 5-hour interval), 60 mg/kg/day. Also, the TGI is recorded as 70% in [2] (125 mg/kg i.p. q3d x 3, day 29) and 93% in [5] (125 mg/kg i.p. q3d x 3). In [3], the “MTD Values” is given as 300 mg/kg. Moreover, the “MTD for repeating dosing” value in data set [4] (5-day repeat dose, intravenous infusion) is reported as 30 mg/kg/day.
Turning to `CCC1(OC(=O)COc2ccc(C(=O)OC3c4cc5c(cc4C(c4cc(OC)c(OC)c(OC)c4)[C@H]4C(=O)OC[C@@H]34)OCO5)cc2)C(=O)OCc2c1cc1n(c2=O)Cc2cc3c(CN(C)C)c(O)ccc3nc2-1` (some centres unmarked) [Compound N1], the IC50 amounted to 0.008 µM in [6] (setting [10]), 0.0242 µM in [7] (setting [11]) and 0.00705 µM in [8] (setting [12]).
Take `CCC1(OC(=O)COc2ccc(C(=O)OC3c4cc5c(cc4C(c4cc(OC)c(OC)c(OC)c4)C4C(=O)OCC34)OCO5)cc2)C(=O)OCc2c1cc1n(c2=O)Cc2cc3cc(OC(=O)N4CCC(N5CCCCC5)CC4)ccc3nc2-1` (centres unmarked) [Compound N2]: the “inhibiting the growth of HCT116 human colon cancer xenografts” value in [9] was “most promising candidate drug against HCT116 human colon cancer among all 4 compounds”. Further, the IC50 in [6] (drugs 72 hours, colonies counted after 14 days) was ~0.52 µM; in data set [7] (drugs 72 hours, colonies counted after 7 days, read-out: IC50 (HCT116)), > 0.5 µM; in data set [8] (drugs 72 hours, colonies counted after 15 days), 0.462 µM. Moreover, the “MTD for repeating dosing” value in the data set “Rat MTD study” (rats, BID slow IV injection for 7 days) turned out to be 60 mg/kg/day. Moreover, the “MTD Values” in [3] was 300 mg/kg.
On to `CCc1c2c(nc3ccc(OC(=O)N4CCC(N5CCCCC5)CC4)cc13)-c1cc3c(c(=O)n1C2)COC(=O)C3(CC)OC(=O)COc1ccc(C(=O)OC2c3cc4c(cc3C(c3cc(OC)c(OC)c(OC)c3)[C@H]3C(=O)OC[C@@H]23)OCO4)cc1` (some centres unmarked) [Compound N3], for which the IC50 in [6] (Homo sapiens) came out at 0.3 µM; in [7] (Homo sapiens, HCT-116, read-out: IC50 (HCT116)), 0.283 µM; in data set [8] (Homo sapiens) it was 0.2 µM.
For `CCc1c2c(nc3ccc(O)c(CN(C)C)c13)-c1cc3c(c(=O)n1C2)COC(=O)C3(CC)OC(=O)COc1ccc(C(=O)OC2c3cc4c(cc3C(c3cc(OC)c(OC)c(OC)c3)[C@H]3C(=O)OC[C@@H]23)OCO4)cc1` (some centres unmarked) [Compound N4], the concentration for half-maximal inhibition (IC50) is 0.005 µM in [6] (setting [10]), 0.0066 µM in data set [7] (setting [11]) and 0.0129 µM in [8] (setting [12]). The compound also returned an MTD in “in vivo” of 250 mg/kg.
With `CCc1c2c(nc3ccc(OC(=O)N4CCC(N5CCCCC5)CC4)cc13)-c1cc3c(c(=O)n1C2)COC(=O)[C@]3(O)CC` [Irinotecan], the TGI in [2] (70 mg/kg i.p. q3d x 3, day 29) was determined as 97%; in data set [5] (70 mg/kg i.p. q3d x 3) it was 92%. In data set [5] (HCT116 model, during the treatment period), this compound yielded a body weight loss of 8%.
For the compound `CCC1(OC(=O)COc2ccc(C(=O)OC3c4cc5c(cc4C(c4cc(OC)c(OC)c(OC)c4)C4C(=O)OCC34)OCO5)cc2)C(=O)OCc2c1cc1n(c2=O)Cc2cc3c(CN(C)C)c(O)ccc3nc2-1.Cl` (centres unmarked) [N1 HCL Salt], the “MTD Values” in data set [3] amounted to 120 mg/kg.
As to `CCc1c2c(nc3ccc(OC(=O)N4CCC(N5CCCCC5)CC4)cc13)-c1cc3c(c(=O)n1C2)COC(=O)C3(CC)OC(=O)COc1ccc(C(=O)OC2c3cc4c(cc3C(c3cc(OC)c(OC)c(OC)c3)C3C(=O)OCC23)OCO4)cc1.Cl` (centres unmarked) [N3 HCL Salt], in [3], the “MTD Values” is 144 mg/kg.
For the compound `CCc1c2c(nc3ccc(O)c(CN(C)C)c13)-c1cc3c(c(=O)n1C2)COC(=O)C3(CC)OC(=O)COc1ccc(C(=O)OC2c3cc4c(cc3C(c3cc(OC)c(OC)c(OC)c3)C3C(=O)OCC23)OCO4)cc1.Cl` (centres unmarked) [N4 HCL Salt], the “MTD Values” in [3] was found to be 180 mg/kg.
